{"source": "paper PMC3380724", "about": "(BMC Neuroscience, 2012)", "key": {"h5-HT2AR [1]": {"biological_target": "T1, h5-HT2AR (Homo sapiens, UniProt P28223)", "T1 sequence (P28223 whole entry)": "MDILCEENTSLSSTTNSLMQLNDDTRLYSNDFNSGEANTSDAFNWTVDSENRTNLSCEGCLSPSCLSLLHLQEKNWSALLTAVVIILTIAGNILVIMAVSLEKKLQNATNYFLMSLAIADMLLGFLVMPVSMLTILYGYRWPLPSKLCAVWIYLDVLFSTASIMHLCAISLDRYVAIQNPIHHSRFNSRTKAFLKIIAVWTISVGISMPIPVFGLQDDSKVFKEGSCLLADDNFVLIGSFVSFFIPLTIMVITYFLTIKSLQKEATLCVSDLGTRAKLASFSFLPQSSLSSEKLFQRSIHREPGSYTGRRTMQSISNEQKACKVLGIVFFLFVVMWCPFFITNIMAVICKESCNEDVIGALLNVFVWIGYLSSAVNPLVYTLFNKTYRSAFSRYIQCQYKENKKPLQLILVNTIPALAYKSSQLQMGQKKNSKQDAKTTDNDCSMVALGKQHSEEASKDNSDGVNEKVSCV", "test": "Intracellular calcium (Cai++) release assay, Calcium 4 dye, 5-HT2AR-CHO cells", "conditions": "for Cai++ response when dye added into existing growth medium: \"Serum Replete\" protocol, 1 μM agonist (Figure 2)"}, "h5-HT2AR [2]": {"biological_target": "T1, h5-HT2AR", "test": "Plate immunoassay for pERK, 5-HT2AR-CHO cells", "assay_type": "cell-based", "conditions": "for pERK response after serum-replete preincubation: overnight serum-replete preincubation (Figure 7)"}, "parental CHO-K1 cells [3]": {"test_system": "parental CHO-K1 cells", "test": "Intracellular calcium (Cai++) release assay, parental CHO-K1 cells", "assay_type": "cell-based, Chinese hamster", "protocol": "Changes in Cai^++ levels were determined using the calcium-sensitive dye Calcium 4 (FLIPR No-wash kit, Molecular Devices, Sunnyvale CA, part #R8142). In our hands, the Molecular Devices kit produced results with reasonable signal intensity and reproducibility compared to other commercially available reagents (e.g., Fluo-3 and Fluo-4) without the necessity of dye removal or washing prior to measurements (data not shown). In addition to convenience, the lower number of manipulations required by this kit allowed for more rapid collection of data and decreased the likelihood of cell disturbance or loss.\nCells were plated in serum-replete medium at indicated densities in black-sided, clear bottom 96-well tissue culture plates. […] When plating volume was less than 150 μl, cells were less evenly distributed (visual observation; data not quantified), so we used 150 to 200 μl. […]\nFluorescence (λex = 485 nm, λem = 525 nm) was measured with a FlexStation3 (Molecular Devices). […] The CHO cells remained attached under these conditions; if using other cells lines, attachment should be monitored and reagent addition conditions modified as necessary.\nFollowing addition of test reagent, fluorescence was recorded every 1.7 sec for 90-120 sec. […] Maximum peak height was determined by the FlexStation software (SoftMax Pro 5.2) for each well. […]"}, "parental CHO-K1 cells [4]": {"test_system": "parental CHO-K1 cells", "test": "Plate immunoassay for pERK, parental CHO-K1 cells", "assay_type": "cell-based, Chinese hamster"}, "unedited h5-HT2CR [5]": {"biological_target": "T2, unedited h5-HT2CR (Homo sapiens, UniProt P28335)", "T2 sequence (P28335 33-458)": "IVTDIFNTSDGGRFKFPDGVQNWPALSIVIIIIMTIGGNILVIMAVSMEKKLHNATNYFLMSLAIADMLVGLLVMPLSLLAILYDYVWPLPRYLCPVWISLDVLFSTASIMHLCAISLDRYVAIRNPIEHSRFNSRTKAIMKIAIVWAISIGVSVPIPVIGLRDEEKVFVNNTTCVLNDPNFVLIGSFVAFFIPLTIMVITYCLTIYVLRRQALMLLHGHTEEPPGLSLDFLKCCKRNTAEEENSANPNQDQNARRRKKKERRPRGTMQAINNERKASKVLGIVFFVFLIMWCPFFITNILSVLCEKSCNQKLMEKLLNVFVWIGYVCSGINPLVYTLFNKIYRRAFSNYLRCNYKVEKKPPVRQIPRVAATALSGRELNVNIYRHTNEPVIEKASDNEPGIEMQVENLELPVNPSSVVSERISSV", "test": "Intracellular calcium (Cai++) release assay, Calcium 4 dye, 5-HT2CR-CHO cells"}, "unedited h5-HT2CR [6]": {"biological_target": "T2, unedited h5-HT2CR", "test": "cell-based"}, "unedited h5-HT2CR [7]": {"biological_target": "T2, unedited h5-HT2CR", "conditions": "5-HT2CR-CHO cells"}, "[8]": {"conditions": "EC50 values for agonist-stimulated Cai++ release, 5-HT2CR-CHO cells, Serum-replete overnight preincubation"}}, "data": [{"smiles": "NCCc1c[nH]c2ccc(O)cc12", "note": "[5-HT, serotonin]", "values": [{"measurement": "Cai++ response when dye added into existing growth medium", "setting": "h5-HT2AR [1]", "result": "dramatically reduced"}, {"measurement": "pERK response after serum-replete preincubation", "setting": "h5-HT2AR [2]", "result": "suppressed"}, {"measurement": "Time of peak ERK activation", "setting": "h5-HT2AR [2]; serum-starved overnight, 1 μM 5-HT", "result": 5, "unit": "min"}, {"measurement": "Cai++ release above baseline", "setting": "parental CHO-K1 cells [3]; above 10^-6 M 5-HT, in a few experiments, not consistent", "result": "< 5", "unit": "%"}, {"measurement": "Cai++ release", "setting": "parental CHO-K1 cells [3]; any concentration of 5-HT (Figure 4B inset)", "result": "no Cai^++ release"}, {"measurement": "pERK response", "setting": "parental CHO-K1 cells [4]", "result": "no detectable response"}]}, {"smiles": "COc1cc(CC(C)N)c(OC)cc1I", "note": "(stereo not shown) [DOI, 1-[2,5-dimethoxy-4-iodophenyl]-2 aminopropane]", "values": [{"measurement": "Cai++ response when dye added into existing growth medium", "setting": "h5-HT2AR [1]", "result": "completely eliminated"}, {"measurement": "Cai++ response after serum preincubation", "setting": "h5-HT2AR [1]; overnight serum-replete preincubation (Figure 3B)", "result": "virtually eliminated"}, {"measurement": "Cai++ response after serum preincubation", "setting": "unedited h5-HT2CR [5]; 5-HT2CR-CHO cells, overnight serum-replete preincubation (Figure 3D)", "result": "virtually eliminated"}, {"measurement": "EC50", "setting": "unedited h5-HT2CR [5]; [8]", "result": "> 100", "unit": "µM"}, {"measurement": "EC50", "setting": "unedited h5-HT2CR [5]; EC50 values for agonist-stimulated Cai++ release, 5-HT2CR-CHO cells, Serum-starved overnight preincubation", "result": 0.0054, "unit": "µM"}, {"measurement": "EC50", "setting": "unedited h5-HT2CR [6]", "result": 0.019, "unit": "µM"}, {"measurement": "Concentration giving maximal pERK response", "setting": "h5-HT2AR [2]; 5 min stimulation", "result": "~1", "unit": "μM"}, {"measurement": "pERK response after serum-replete preincubation", "setting": "h5-HT2AR [2]", "result": "suppressed"}, {"measurement": "Concentration giving maximal pERK response", "setting": "unedited h5-HT2CR [7]; 5 min stimulation", "result": "~1", "unit": "μM"}, {"measurement": "pERK response after serum-replete preincubation", "setting": "unedited h5-HT2CR [7]; overnight serum-replete preincubation (Figure 7)", "result": "suppressed"}]}, {"smiles": "Clc1cncc(N2CCNCC2)n1", "note": "[MK212]", "values": [{"measurement": "EC50 values for agonist-stimulated Cai++ release", "setting": "h5-HT2AR [1]; Serum-replete overnight preincubation", "result": "No response"}, {"measurement": "EC50 values for agonist-stimulated Cai++ release", "setting": "h5-HT2AR [1]; Serum-starved overnight preincubation", "result": "No response"}, {"measurement": "Cai++ release", "setting": "h5-HT2AR [1]; any tested concentration up to 10^-4 M", "result": "no detectable Cai^++ release"}, {"measurement": "Cai++ response after serum-replete preincubation", "setting": "unedited h5-HT2CR [5]; 5-HT2CR-CHO cells preincubated in serum-replete medium", "result": "greatly decreased"}, {"measurement": "EC50", "setting": "unedited h5-HT2CR [5]; [8]", "result": "> 11", "unit": "µM"}, {"measurement": "Cai++ response magnitude", "setting": "unedited h5-HT2CR [5]; serum-starved 5-HT2CR-CHO cells", "result": "low magnitude"}]}, {"smiles": "COc1ccc(NC(=O)c2ccc(-c3ccc(-c4noc(C)n4)cc3C)cc2)cc1OCCN(C)C", "note": "[SB216641]", "values": [{"measurement": "Effect of 5-HT1BR antagonist on Cai++ concentration response to 5-HT", "setting": "unedited h5-HT2CR [5]; 5-HT2CR-CHO cells, 10^-6 M SB216641, any concentration of 5-HT", "result": "no significant difference"}]}, {"smiles": "Cc1cc2c(cc1Cl)N(C(=O)Nc1ccc(Oc3cccnc3C)nc1)CC2", "note": "[SB242084]", "values": [{"measurement": "EC50", "setting": "unedited h5-HT2CR [5]", "result": 0.0023, "unit": "µM"}, {"measurement": "Inhibition of 5-HT-stimulated Cai++ response by antagonist", "setting": "unedited h5-HT2CR [5]; 5-HT2CR-CHO cells, 15 min pretreatment, 1 μM 5-HT", "result": "completely inhibited"}]}]}
